Tests used:
CD47 = conditions: ref [43]; cited from earlier work
Description: In addition to the putative effects that may be due to CD47 association with its co-receptors, TAX2-bound TSP-1 also remains able to bind a wide variety of ligands through the other domains of the multi-modular protein. Among these domains, a central region of TSP-1 called 3TSR (three TSP-1 type 1 repeats) binds to the CD36 membrane receptor, also leading to inhibition of angiogenesis. Indeed, CD36 ligation by TSP-1 is known to induce an anti-angiogenic response by promoting CD36 association with β1 integrin and VEGFR2 dimer in a tripartite complex, resulting in decreased VEGFR2 phosphorylatio ... || Figure 7 TAX2 induces a shift in TSP-1 binding from CD47 to CD36 A. In physiological conditions, most of TSP-1-related effects on vascular function are mediated by TSP-1 carboxy terminal domain interaction with CD47 receptor. B. Under TAX2 treatment preventing TSP-1:CD47 interaction, binding of the 3TSR module of TSP-1 to CD36 receptor is promoted, thus leading to an overall anti-angiogenic response (NTD, N-terminal domain; Col, procollagen-homology domain; CBD, carboxy terminal cell binding domain). TEXT PRINTED IN THE PICTURE: (A) TSP-1: CD36: 1-10 nM; CD47: 10-100 pM DOUBTS OF THE COPYIST A ...

[1] = system: immobilized TSP-1 (thrombospondin from human platelets); experiment: ELISA binding of biotin-labeled peptides to immobilized TSP-1; conditions: biotin-labeled peptide 10 μg/mL, 3 h, room temperature, 0.5% BSA; absorbance 450 nm; n = 3 in triplicate
Procedure: Microtiter plates (Nunc, ThermoFisher Scientific, Courtaboeuf, France) were coated overnight at 4°C with 0.5 μg TSP-1 in sodium carbonate-bicarbonate (BupH) buffer (Thermo Fisher Scientific). Plates were washed with PBS 0.1% BSA (Sigma-Aldrich) and non-specific sites were saturated during 30 min using 1% (w/v) BSA in BupH buffer. Biotin-labeled peptide (10 μg/mL, determined after dose-response assay from 0.01 to 100 μg/mL) was added in buffer containing 0.5% (w/v) BSA and incubated for 3 h at room temperature. Non-labeled peptide (0.001 to 5 mg/mL) was used as selective competitor. Plates were washed with PBS containing 0.1% (w/v) BSA and treated for 30 min with mouse anti-biotin antibody. Bound antibody was quantified using the mouse IgG Elite Vectastain ABC kit (Vector Laboratories) followed by incubation with 1-Step Turbo TMB substrate as a chromogen (ThermoFisher Scientific). The reaction was stopped with 0.5 M H2SO4 and absorbance was read at 450 nm.

Row | Substance | binding affinity for CD47 compared to CD36 (CD47) | binding to immobilized TSP-1 [1]
1 | TSP-1: multimodular protein secreted as a disulfide-linked 450 kDa homotrimer | higher compared to CD36 binding | 
2 | LSVDESKAQGIL [scrambled peptide, scrambled dodecapeptide used as a control (…), reference compound] |  | does not

From paper PMC4627230, “Identification of TAX2 peptide as a new unpredicted anti-cancer agent” (Oncotarget, 2015)
